Format in all cases: in vivo, Swiss Albino mice
Experiment [1] concerns TH1. The experiment in a line: Immune health biomarkers (T helper subsets): TH1. The conditions noted are these: for TH1(%): T helper subset in blood after 28 days, mice, n = 8; for TH1 Change over control [%]: vs Exercise Control, 28 days. The procedure:
(§1) PMI Nutrition International, Brentwood, MO, USA). Distilled water was provided ad libitum. All animal experiments were reviewed and approved by the Institutional Animal Ethical Committee (IAEC) of Radiant Research Services Pvt. Ltd (Bangalore, India). All research was conducted in accordance with the guidelines of the committee for the purpose of control and supervision of experiments on animals (CPCSEA Registration Number-1803/PO/[…]). […] (1) vehicle control; […] (4) paraxanthine+dileucine; […] The dose administered to the mice was calculated using US Food and Drug Administration for human equivalence doses (HED), assuming a human weight of 60 kg. […] Dosing was conducted via oral gavage using disposable polypropylene syringes with sterilized stainless steel gavage tubes. The food intake and water consumption were monitored daily, and BW was recorded weekly. The last dose on day 28 was given 1 hour prior to testing. Serum and plasma samples were separated by centrifuging the blood at 8000 rpm for 10 mins and analyze the below mentioned biomarkers, Biomarkers: TC, TG, LDL and HDL, CRP, Serum lactate, Ammonia, Glucose, NO, IL-2, IL-6, IL-10. Blood was collected in EDTA tubes for below mentioned biomarkers, Immune health Biomarkers (T helper subsets): […]

Experiment [2] concerns iTreg. Put plainly: Immune health biomarkers (T helper subsets): iTreg. Particulars: for iTreg(%) / iTreg(%) (mg/L): T helper subset in blood after 28 days, mice, n = 8; for iTreg Change over control [%]: vs Exercise Control, 28 days. The procedure:
(§2) Eight 8-week-old male Swiss Albino mice per experimental group were housed in an animal room at a constant temperature (22±3° C.) and humidity (30%-70%) under a 12:12 h light-dark cycle with standard laboratory diet (Purina 5L79, Rat and Mouse 18% protein; PMI Nutrition International, Brentwood, MO, USA). Distilled water was provided ad libitum. All animal experiments were reviewed and approved by the Institutional Animal Ethical Committee (IAEC) of Radiant Research Services Pvt. Ltd (Bangalore, India). All research was conducted in accordance with the guidelines of the committee for the purpose of control and supervision of experiments on animals (CPCSEA Registration Number-1803/PO/RcBi/S/2015/CPCSEA).
(§3) After one week of acclimation, the animals were randomly divided by body weight into different groups (n=8 per group in each test) for oral treatment once a day, at approximately same time each day (+1 hour), for 28 consecutive days: (1) vehicle control; (2) paraxanthine (3) dileucine; (4) paraxanthine+dileucine; (5) L-arginine; (6) L-arginine+dileucine; (7) L-citrulline; and (8) L-citrulline+dileucine. The dose administered to the mice was calculated using US Food and Drug Administration for human equivalence doses (HED), assuming a human weight of 60 kg. The following HED were used in this study: 2,000 mg dileucine (RAMPS™, Ingenious Ingredients, L.P., Lewisville, TX, USA; mouse 411 mg/kg bw), 100 mg paraxanthine, (ENFINITY™, Ingenious Ingredients, L.P Lewisville, TX, USA; mouse dose: 20.5 mg/kg bw/day); 3,000 mg L-arginine (Nanjing Nutrabuilding Bio-tech Co., LTD., No. 270 Jiqingmen Strect, Suning Huigu, Building E6, Room 2105, Nanjing, China 210017; mouse 616.55 mg/kg bw), 3,000 mg L-citrulline (Nanjing Nutrabuilding Bio-tech Co., LTD., No. 270 Jiqingmen Street, Suning Huigu, Building E6, Room 2105, Nanjing, China 210017; mouse 616.55 mg/kg bw). 0.5% Carboxy Methyl Cellulose sodium was used as vehicle and the test item formulations were prepared daily. Dosing was conducted via oral gavage using disposable polypropylene syringes with sterilized stainless steel gavage tubes. The food intake and water consumption were monitored daily, and BW was recorded weekly. The last dose on day 28 was given 1 hour prior to testing.
(§4) Serum and plasma samples were separated by centrifuging the blood at 8000 rpm for 10 mins and analyze the below mentioned biomarkers, Biomarkers: TC, TG, LDL and HDL, CRP, Serum lactate, Ammonia, Glucose, NO, IL-2, IL-6, IL-10. Blood was collected in EDTA tubes for below mentioned biomarkers, Immune health Biomarkers (T helper subsets): TH1, TH2, TH17, Tfh, iTreg.

The nature of experiment [3]: Effect on body weight, 28-day oral supplementation with exercise. The conditions noted are these: for Body Weight (grams) Day −0: Day −0 (baseline); for Body Weight (grams) Day −0 / Body Weight (grams) Day −28: mice, n = 8; for Weight gain in grams: Day −0 to Day −28, oral once a day; for Body Weight (grams) Day −28: Day −28, oral once a day for 28 days; for Percentage weight loss over control: weight gain vs Exercise Control, 28 days. Here is the method: as §2, §3
Individual body weights were recorded at receipt, on the day of randomization, on the first day of treatment before dosing (Day 1) and weekly thereafter. The body weight changes for all the animals were calculated and reported along with the body weight data.

Experiment [4] relates to high-density lipids (HDL). The experiment in a line: Blood lipids: HDL. The conditions noted are these: for HDL Change over control [%]: vs Exercise Control, 28 days. The procedure: as §2, §3
(§5) All animals were euthanized by 95% CO2 after 28 days of following their assigned treatment. Blood was collected immediately after euthanization by the retro-orbital route and was immediately centrifuged at 1500×g for 10 min at 4° C. before having all serum transferred into cryogenic tubes and stored at −80° C.
as §4

In experiment [5] the test system is TH17. The experiment in a line: Immune health biomarkers (T helper subsets): TH17. Particulars: for TH17(%): T helper subset in blood after 28 days, mice, n = 8; for TH17 Change over control [%]: vs Exercise Control, 28 days. The procedure:
as §1

The test system of experiment [6] is C-reactive protein (CRP). Put plainly: Inflammatory markers: CRP. The conditions noted are these: for CRP (mg/L): after 28 days of supplementation and exercise, mice, n = 8; for CRP Change over control [%]: vs Exercise Control, 28 days. The procedure:
as §2, §3, §5, §4

Experiment [7] has as its system low-density lipids (LDL). Put plainly: Blood lipids: LDL. Particulars: for LDL: after 28 days of supplementation, mice, n = 8; for LDL Change over control [%]: vs Exercise Control, 28 days. Here is the method: as §2, §3, §5, §4
The test system of experiment [8] is nitric oxide. The experiment in a line: NO signaling: nitric oxide level. The conditions noted are these: for Nitric oxide (μmol/L) (mg/L): after 28 days of supplementation and exercise, mice, n = 8; for Nitric oxide Change over control [%]: vs Exercise Control, 28 days. Here is the method: as §2, §3, §5, §4
Experiment [9] has as its system IL-10. Put plainly: Inflammatory markers: IL-10. Particulars: for IL-10 (pg/ml): after 28 days of supplementation and exercise, mice, n = 8; for IL-10 Change over control [%]: vs Exercise Control, 28 days. The procedure:
as §2, §3, §5, §4

Setting [10] is: after 28 days of supplementation, mice, n = 8.

Marks after values point to notes of the source that are not given here.

For `N=C(N)NCCC[C@H](N)C(=O)O` [L-Arginine, L-arginine], in [1], the “TH1(%)” value is 53.66*** % and the “TH1 Change over control [%]” value is −43%. For the same molecule, in experiment [2], the “iTreg(%)” value was 35.86*** % and the “iTreg Change over control [%]” value is −34%. In experiment [3], the “Body Weight (grams) Day −0” value stood at 23 grams, the “Weight gain in grams” value is 10.01 grams, the “Body Weight (grams) Day −28” value is 33.01* grams and the “Percentage weight loss over control” value is −7%. Besides, the “HDL” value in experiment [4] (setting [10]) came out at 35.86 mg/dL. Further, the “HDL Change over control [%]” value in experiment [4] was 5%. In addition, in experiment [5], the “TH17(%)” value was 26.16*** % and the “TH17 Change over control [%]” value worked out at 617%. Further, in experiment [6], the “CRP (mg/L)” value is recorded as 0.69*** mg/L and the “CRP Change over control [%]” value is −16%. In [7], the “LDL” value came to 44.66 mg/dL and the “LDL Change over control [%]” value is listed as 3%. Besides, in experiment [8], the “Nitric oxide (μmol/L) (mg/L)” value is 77.98* μmol/L and the “Nitric oxide Change over control [%]” value was 29%. In experiment [9], the “IL-10 (pg/ml)” value is on record as 565.47** pg/ml and the “IL-10 Change over control [%]” value worked out at 5%.

Turning to `NC(=O)NCCC[C@H](N)C(=O)O` [L-Citrulline, L-citrulline], in [1], the “TH1(%)” value is recorded as 59.71*** % and the “TH1 Change over control [%]” value is −36%. In addition, in experiment [2], the “iTreg(%)” value is given as 38.83*** % and the “iTreg Change over control [%]” value is −29%. Moreover, in experiment [3], the “Body Weight (grams) Day −0” value was found to be 22.49 grams, the “Weight gain in grams” value is 9.83 grams, the “Body Weight (grams) Day −28” value is listed as 33.01* grams and the “Percentage weight loss over control” value was −9%. Also, the “HDL” value in experiment [4] (setting [10]) was determined as 35.63 mg/dL. Moreover, the “HDL Change over control [%]” value in experiment [4] stood at 4%. In [5], the “TH17(%)” value was 25.89*** % and the “TH17 Change over control [%]” value stood at 609%. In [6], the “CRP (mg/L)” value was 0.69*** mg/L and the “CRP Change over control [%]” value is reported as −16%. In [7], the “LDL” value turned out to be 44.01 mg/dL and the “LDL Change over control [%]” value is recorded as 1%. In addition, in experiment [8], the “Nitric oxide (μmol/L) (mg/L)” value came to 77.61 µmol/L and the “Nitric oxide Change over control [%]” value is on record as 28%. Besides, in experiment [9], the “IL-10 (pg/ml)” value was 559.63** pg/ml and the “IL-10 Change over control [%]” value was 4%.

`Cn1c(=O)[nH]c2ncn(C)c2c1=O` [Paraxanthine, 1,7-dimethylxanthine]: in [1], the “TH1(%)” value is recorded as 65.68*** % and the “TH1 Change over control [%]” value is reported as −30%. Moreover, in experiment [2], the “iTreg(%) (mg/L)” value is on record as 23.68*** % and the “iTreg Change over control [%]” value is given as −57%. In addition, in experiment [3], the “Body Weight (grams) Day −0” value is recorded as 24.35 grams, the “Weight gain in grams” value amounted to 8.86 grams, the “Body Weight (grams) Day −28” value is listed as 33.21* grams and the “Percentage weight loss over control” value is −18%. Further, the “HDL” value in experiment [4] (setting [10]) was 36.36 mg/dL. For the same molecule, the “HDL Change over control [%]” value in [4] is recorded as 4%. In experiment [5], the “TH17(%)” value is given as 31.33*** % and the “TH17 Change over control [%]” value amounted to 758%. In experiment [6], the “CRP (mg/L)” value was 0.64** mg/L and the “CRP Change over control [%]” value is listed as −17%. For the same molecule, in experiment [7], the “LDL” value is 43.23 mg/dL and the “LDL Change over control [%]” value was −1%. In addition, in [8], the “Nitric oxide (μmol/L) (mg/L)” value is given as 84.29*** μmol/L and the “Nitric oxide Change over control [%]” value worked out at 33%. In experiment [9], the “IL-10 (pg/ml)” value is listed as 571.71*** pg/ml and the “IL-10 Change over control [%]” value is 8%.

As for `CC(C)C[C@H](NC(=O)[C@@H](N)CC(C)C)C(=O)O` [Dileucine, L-Leucyl-L-leucine], in experiment [1], the “TH1(%)” value is reported as 58.86*** % and the “TH1 Change over control [%]” value is listed as −37%. Further, in experiment [2], the “iTreg(%) (mg/L)” value was 18.68*** % and the “iTreg Change over control [%]” value is −66%. For the same molecule, in experiment [3], the “Body Weight (grams) Day −0” value is given as 24.09 grams, the “Weight gain in grams” value is recorded as 9.14 grams, the “Body Weight (grams) Day −28” value is 33.23* grams and the “Percentage weight loss over control” value is −15%. In addition, the “HDL [mg/dl]” value in experiment [4] (setting [10]) is given as 37.63* mg/dl. Moreover, in [4], the “HDL Change over control [%]” value was 8%. In addition, in experiment [5], the “TH17(%)” value is listed as 29.62*** % and the “TH17 Change over control [%]” value is 712%. Also, in experiment [6], the “CRP (mg/L)” value is 0.63*** mg/L and the “CRP Change over control [%]” value is reported as −18%. In experiment [7], the “LDL” value amounted to 42.05 mg/dL and the “LDL Change over control [%]” value is recorded as −3%. Also, in experiment [8], the “Nitric oxide (μmol/L) (mg/L)” value is 84.83*** μmol/L and the “Nitric oxide Change over control [%]” value came out at 34%. Moreover, in experiment [9], the “IL-10 (pg/ml)” value is listed as 569.36*** pg/ml and the “IL-10 Change over control [%]” value is 8%.
